Experimental data taken from PubChem BioAssay AID2060356 (Molecular Pharmacology Branch, DTP, NCI, 2025).
Where “and” joins values, the source holds several entries; their conditions need not be identical. Equal values may be shown once.

Tested on: PDC tumor spheroids with HUVEC/MSC, viability
Assay: Anticancer human tumor 439559-082-T-J2-PDC patient-derived colon adenocarcinoma cell line growth inhibition [TAK]
Settings: for viability, T/C: stronger effect = lower value
Text: Combinatorial screen of targeted agents with TAK-243 and ipatasertib in multi-cell type tumor spheroids
A high-throughput screen of multi-cell type tumor spheroids was designed to identify active combinations of targeted small molecules and TAK-243 or ipatasertib. Complex spheroids include a stromal component modeled by human endothelial cells (HUVEC) and fibroblasts modeled by human mesenchymal stem cells (MSCs). The concentration ranges selected for each drug and investigational agent were based upon clinically achievable concentrations if the clinical Cmax of the agent was known.
Compounds. The drugs and investigational agents: TAK-243 (785004), ipatasertib (767898), everolimus (733504), selumetinib (741078), bortezomib (756655), trametinib (758246), ixazomib (758254), vemurafenib (761431), dabrafenib (764134), sapanisertib (764658), alpelisib (765974), and copanlisib (816437), were obtained from the National Cancer Institute (NCI) Developmental Therapeutics Program Chemical Repository. The FDA-approved anticancer drug set is available from the NCI Developmental Therapeutics Program. […] The stock solutions were prepared in dimethyl sulfoxide (DMSO, Sigma-Aldrich, St. Louis, MO, cat. D2650) at 800-fold the tested concentration and stored at -70 degrees C prior to their use. All drugs and investigational agents were tested over a range starting from a high concentration at or near the clinical Cmax and decreasing in half-log increments. If the clinical Cmax for an agent had not been determined, the highest concentration tested was 10 microM.
NCI60 Cell Culture. NCI60 cell lines were obtained from the NCI Developmental Therapeutics Program Tumor Repository. For each lot of cells, the Repository performed Applied Biosystems AmpFLSTR Identifiler testing with PCR amplification to confirm consistency with the published Identifier STR profile for each cell line. Cells were kept in continuous culture for no more than 20 passages. The optimal seeding densities for each of the cell lines at each time point assessed were determined prior to performing the concentration response studies. Briefly, the NCI60 human tumor lines were grown as monolayers in RPMI 1640 medium supplemented with 10% FBS and 2 mmol/L L-glutamine.
An additional 2 lines were from the NCI60 cell line panel including melanomas, MALME-3M and SK-MEL-2. Pooled donor human umbilical vein endothelial cells (HUVEC, Lonza, cat. CC-2519) and human mesenchymal stem cells (hMSC, Lonza, cat. PT-2501) were purchased from Lonza (Walkersville, MD).
PDMR cell lines were grown in complete medium (DC medium): Dulbecco's modified Eagle's medium (DMEM)/F12 supplemented with 5% fetal bovine serum (FBS), 2 mM L-glutamine, 100 U/mL penicillin and 100 µg/ml streptomycin, 0.4 µg/ml hydrocortisone, 10 ng/ml epidermal growth factor (EGF) recombinant human protein, 24 µg/mL adenine, and 0.1 mg/mL primocin. During culture from frozen stock vials, PDMR cells were cultured in the same medium containing 10 µM Y-27632 (see Table 3). The PDCs were cultured in complete DMEM/F12 media without 10 microM Y-27632 dihydrochloride for at least two passages prior to the screen. The pooled donor HUVEC and hMSC were cultured in endothelial cell growth medium 2 (PromoCell, Heidelberg, Germany, cat. C-22011) and mesenchymal stem cell growth medium 2 (PromoCell, cat. C-28009), respectively. For all experiments, HUVEC and hMSC were used at passages </=5.
For the pre-screen, cell seeding densities were determined from a titration spanning the range from 5,000 to 313 cells per well. The mct-spheroids including 60% malignant cells, 25% HUVEC and 15% MSC dispensed as a mixture into U-bottom Ultra-Low Attachment 384-well plates (Corning, NY)
High-throughput Drug Combination Screening.
Prior to their inoculation into 384-well plates, malignant cells, HUVEC, and hMSC were removed from T flasks using TrypLE express (Thermo Fisher Scientific, cat. 12605036) and harvested by centrifugation for 5 min at 233 x g. […]
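Note: spheroids exposed to drugs for seven days before readout.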

CC(C)(C)c1nc(-c2cccc(NS(=O)(=O)c3c(F)cccc3F)c2F)c(-c2ccnc(N)n2)s1 + CC(C)NCC(C(=O)N1CCN(c2ncnc3c2C(C)CC3O)CC1)c1ccc(Cl)cc1
IC50 (curve of first compound, second compound 0.3 µM): > 10 µM
IC50 (curve of first compound, second compound 0.949 µM): > 10 µM
IC50 (curve of first compound, second compound 3 µM): > 10 µM
IC50 (curve of first compound, second compound 9.49 µM): > 10 µM
IC50 (curve of first compound, second compound 30 µM): > 10 µM
viability, T/C (second compound 0.3 µM, first compound 0.0316 µM): 123%
viability, T/C (second compound 0.3 µM, first compound 0.1 µM): 108%
viability, T/C (second compound 0.3 µM, first compound 0.316 µM): 106%
viability, T/C (second compound 0.3 µM, first compound 1 µM): 110%
viability, T/C (second compound 0.3 µM, first compound 3.16 µM): 113%
viability, T/C (second compound 0.3 µM, first compound 10 µM): 96.3%
viability, T/C (second compound 0.949 µM, first compound 0.0316 µM): 108%
viability, T/C (second compound 0.949 µM, first compound 0.1 µM): 113%
viability, T/C (second compound 0.949 µM, first compound 0.316 µM): 102%
viability, T/C (second compound 0.949 µM, first compound 1 µM): 111%
viability, T/C (second compound 0.949 µM, first compound 3.16 µM): 106%
viability, T/C (second compound 0.949 µM, first compound 10 µM): 96.2%
viability, T/C (second compound 3 µM, first compound 0.0316 µM): 104%
viability, T/C (second compound 3 µM, first compound 0.1 µM): 107%
viability, T/C (second compound 3 µM, first compound 0.316 µM): 106%
viability, T/C (second compound 3 µM, first compound 1 µM): 96.9%
viability, T/C (second compound 3 µM, first compound 3.16 µM): 103%
viability, T/C (second compound 3 µM, first compound 10 µM): 93.8%
viability, T/C (second compound 9.49 µM, first compound 0.0316 µM): 99.8%
viability, T/C (second compound 9.49 µM, first compound 0.1 µM): 107%
viability, T/C (second compound 9.49 µM, first compound 0.316 µM): 102%
viability, T/C (second compound 9.49 µM, first compound 1 µM): 90.5%
viability, T/C (second compound 9.49 µM, first compound 3.16 µM): 96%
viability, T/C (second compound 9.49 µM, first compound 10 µM): 99.5%
viability, T/C (second compound 30 µM, first compound 0.0316 µM): 93.5%
viability, T/C (second compound 30 µM, first compound 0.1 µM): 101%
viability, T/C (second compound 30 µM, first compound 0.316 µM): 96.2%
viability, T/C (second compound 30 µM, first compound 1 µM): 99.4%
viability, T/C (second compound 30 µM, first compound 3.16 µM): 86.8%
viability, T/C (second compound 30 µM, first compound 10 µM): 94%

CCCS(=O)(=O)Nc1ccc(F)c(C(=O)c2c[nH]c3ncc(-c4ccc(Cl)cc4)cc23)c1F
viability, T/C (compound 0.316 µM): 114% and 106%
viability, T/C (compound 1 µM): 109% and 102%
viability, T/C (compound 3.16 µM): 97.3% and 102%
viability, T/C (compound 10 µM): 87.2% and 71.7%
viability, T/C (compound 31.6 µM): 103% and 94.9%
viability, T/C (compound 100 µM): 93.9% and 95.7%
IC50 (curve of compound): > 100 µM

CC(=O)Nc1cccc(-n2c(=O)n(C3CC3)c(=O)c3c(Nc4ccc(I)cc4F)n(C)c(=O)c(C)c32)c1
viability, T/C (compound 94.9 pM): 105% and 111%
viability, T/C (compound 0.0003 µM): 101% and 94.9%
viability, T/C (compound 0.000949 µM): 91% and 88.8%
viability, T/C (compound 0.003 µM): 73.6% and 75.2%
viability, T/C (compound 0.00949 µM): 72.6% and 75.3%
viability, T/C (compound 0.03 µM): 63.9% and 60.4%
IC50 (curve of compound): > 0.03 µM
